This note sets out measurements from US7625948B2, “Ester compound and medicinal use thereof” (Japan Tobacco Inc., priority 2002, dated 2009).

One experiment relates to HepG2 cells. Description: Test Example 2: inhibition of apolipoprotein B secretion from HepG2 cells, ELISA (also used for metabolites in Test Example 8). It is filed as cell-based. To be noted: Homo sapiens, 24 hours, apo B in supernatant by ELISA, read-out: Test Example 2 Inhibition of apo B secretion IC50. The procedure, abridged: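 HepG2 cells cultured 24 h, then exposed 24 h to compounds or metabolites in medium with 0.5% DMSO. Secreted apo B in supernatant quantified by sandwich ELISA (HRP, ABTS, 405 nm) against purified human apo B standard; % inhibition vs DMSO group, IC50 derived.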
(In general: In an ELISA, binding on a coated surface is turned into a signal by an enzyme label.)

The target of experiment [1] is T1, Microsomal triglyceride transfer protein (MTP) from bovine liver (Bos taurus, UniProt P55156).
T1 construct: from tissue; host or cells: bovine liver
T1 sequence (P55156 12-887): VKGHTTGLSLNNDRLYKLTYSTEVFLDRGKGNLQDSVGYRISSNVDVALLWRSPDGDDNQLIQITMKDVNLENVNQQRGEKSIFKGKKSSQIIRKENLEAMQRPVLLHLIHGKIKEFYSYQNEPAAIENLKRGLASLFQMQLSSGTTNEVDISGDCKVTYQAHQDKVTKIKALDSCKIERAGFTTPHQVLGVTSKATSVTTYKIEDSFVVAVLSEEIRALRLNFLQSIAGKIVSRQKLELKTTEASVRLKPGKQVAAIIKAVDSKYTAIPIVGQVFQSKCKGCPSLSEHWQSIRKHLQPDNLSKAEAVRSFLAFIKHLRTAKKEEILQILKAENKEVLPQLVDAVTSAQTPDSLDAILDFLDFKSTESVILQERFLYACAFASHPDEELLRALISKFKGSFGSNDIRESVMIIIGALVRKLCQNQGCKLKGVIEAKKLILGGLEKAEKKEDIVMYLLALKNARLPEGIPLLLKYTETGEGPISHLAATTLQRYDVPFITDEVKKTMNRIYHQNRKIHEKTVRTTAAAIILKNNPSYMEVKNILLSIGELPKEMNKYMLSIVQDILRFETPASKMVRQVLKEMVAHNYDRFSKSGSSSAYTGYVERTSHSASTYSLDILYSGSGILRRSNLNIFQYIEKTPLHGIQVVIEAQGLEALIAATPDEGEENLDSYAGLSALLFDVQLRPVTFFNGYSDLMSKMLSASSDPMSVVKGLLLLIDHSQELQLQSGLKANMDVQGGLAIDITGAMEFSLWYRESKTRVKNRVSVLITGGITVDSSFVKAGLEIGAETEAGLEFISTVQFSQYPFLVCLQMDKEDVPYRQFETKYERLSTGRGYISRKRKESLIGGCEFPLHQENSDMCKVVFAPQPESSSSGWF
T1 sequence (P05307 21-510 partner): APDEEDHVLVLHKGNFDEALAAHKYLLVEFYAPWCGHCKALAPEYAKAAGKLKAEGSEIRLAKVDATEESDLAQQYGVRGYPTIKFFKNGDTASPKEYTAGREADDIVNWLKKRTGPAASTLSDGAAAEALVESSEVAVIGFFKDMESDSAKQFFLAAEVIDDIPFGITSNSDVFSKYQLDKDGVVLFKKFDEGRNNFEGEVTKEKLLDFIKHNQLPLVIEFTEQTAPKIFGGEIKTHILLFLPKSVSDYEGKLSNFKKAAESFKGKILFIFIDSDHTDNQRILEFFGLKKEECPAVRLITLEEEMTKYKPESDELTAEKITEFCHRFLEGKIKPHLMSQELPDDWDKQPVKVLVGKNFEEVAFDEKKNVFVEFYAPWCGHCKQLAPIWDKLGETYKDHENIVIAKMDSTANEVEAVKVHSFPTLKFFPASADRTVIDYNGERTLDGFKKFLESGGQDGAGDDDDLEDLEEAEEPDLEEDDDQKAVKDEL
Description: Test Example 1: inhibition of interliposomal triglyceride (TG) transfer activity by MTP (also used for metabolites in Test Example 8). The class given is biochemical. The note with it: MTP-mediated 14C-triolein transfer between liposomes, 37° C., one hour; read-out: Test Example 1 MTP inhibition IC50. Here is the method: Inhibition of Interliposomal Triglyceride (TG) Transfer Activity by MTP
Microsomal triglyceride transfer protein (MTP) from bovine liver was partially purified in such a way described below. A buffer (50 mM Tris, 250 mM sucrose, 1 mM EDTA, 0.02% NaN3 (pH 7.4)) for making a homogenate preparation was added to bovine liver, and the mixture was homogenated under ice-cooling, then centrifuged at 10,000×g (4° C., 30 minutes). The supernatant was adjusted to pH 5.1 with hydrochloric acid, and stirred for 30 minutes. The solution was further centrifuged at 10,000×g (4° C., 30 minutes), and 1 mM Tris buffer was added to the precipitated residue, and the mixture was adjusted to pH 8.6 with sodium hydroxide. After addition of 2.7M ammonium sulfate solution, the mixture was stirred for 30 minutes, then centrifuged at 10,000×g (4° C., 40 minutes). The resulting supernatant was served as a crude extraction fraction of MTP and stored at −80° C. under freezing. In its practical use, the crude extraction fraction of MTP was purified by column chromatography on diethylaminoethyl (DEAE) Sepharose using FPLC (Fast Performance Liquid Chromatography) system, and the purified MTP was used for the test.
Small unilamellar-vesicle (SUV) liposome (donor, 0.25 mol % triolein, 5 mol % cardiolipin) labeled with ^14C-triolein and non-labeled SUV liposome (acceptor, 0.25 mol % triolein) were prepared. A fixed amount of donor and acceptor, and MTP were mixed with a sample dissolved in DMSO or with DMSO. The mixture was incubated in a 15 mM Tris hydrochloride buffer (pH 7.4) containing 40 mM sodium chloride, 1 mM EDTA (ethylenediaminetetraacetic acid), 0.02% NaN3 and 0.5% bovine serum albumin at 37° C. for one hour. After completion of the incubation, a suspension of DEAE cellulose (50% v/v) in 15 mM Tris hydrochloride buffer (pH 7.4) was added to the above solution, and the mixture was centrifuged to separate the donor and the acceptor. The radioactivity in the acceptor was measured by liquid scintillation counter. The value obtained by subtracting the radioactivity in the blank from the amount of radioactivity in the acceptor of a DMSO group was determined as MTP-mediated TG transfer activity, and it was compared with the value obtained by subtracting the radioactivity in the blank from the radioactivity in a sample group. The blank was prepared by adding 15 mM Tris-HCl buffer (pH 7.4) in place of MTP. Inhibition rate (%) was calculated from the values obtained according to the following equation.
Inhibition rate (%)=100×(1 minus ((radioactivity of sample group minus radioactivity of blank group)/(radioactivity of DMSO group minus radioactivity of blank group))).
50% Inhibition rate (IC50) was determined on the basis of the above equation.
Inhibitory Activity on MTP and apo B Secretion Inhibition by Metabolites
In a similar manner to Test Examples 1 and 2, the activity of metabolites was assayed.

Consider `CCOC(=O)C(COC(=O)Cc1ccc(NC(=O)c2ccccc2-c2ccc(C(F)(F)F)cc2)c(OC)c1)(C(=O)OCC)c1ccccc1` [Example 3-4], for which the IC50 turned out to be 13 nM with HepG2 cells and 2.1 nM in experiment [1].

With `CCOC(=O)C(COC(=O)Cc1ccc(NC(=O)c2ccccc2-c2ccc(C(F)(F)F)cc2)c(OCc2ccccc2)c1)(C(=O)OCC)c1ccccc1` [Example 3-14], the results for the IC50 (with HepG2 cells; in experiment [1]) were 64 nM and 13 nM, respectively.

For the molecule `CCOC(=O)C(CCOC(=O)Cc1cccc(NC(=O)c2ccccc2-c2ccc(C(F)(F)F)cc2)c1C)(C(=O)OCC)c1ccccc1` [Example 5, 2-[2-(2-{2-methyl-3-[(4′-trifluoromethylbiphenyl-2-carbonyl)amino]phenyl}acetoxy)ethyl]-2-phenylmalonic acid diethyl ester], the IC50 in the experiment on HepG2 cells was 19 nM; in experiment [1] it was 3.1 nM.

For the molecule `CCOC(=O)C(COC(=O)Cc1cccc(NC(=O)c2ccccc2-c2ccc(C(F)(F)F)cc2)c1)(C(=O)OCC)c1ccccc1` [Example 5-2], the IC50 stood at 875 nM in the experiment with HepG2 cells and 66.5 nM in experiment [1].

On to `CCOC(=O)C(CCOC(=O)Cc1cccc(NC(=O)c2ccccc2-c2ccc(C(F)(F)F)cc2)c1)(C(=O)OCC)c1ccccc1` [Example 5-3], for which the IC50 with HepG2 cells turned out to be 86.5 nM; in experiment [1] it was 6.2 nM.

As to `CCNC(=O)C(CCOC(=O)Cc1cccc(NC(=O)c2ccccc2-c2ccc(C(F)(F)F)cc2)c1)(C(=O)NCC)c1ccccc1` [Example 5-4], the figures for the IC50 (in the experiment on HepG2 cells; in experiment [1]) were 57 nM and 2.4 nM, respectively.

Take `CCCNC(=O)C(CCOC(=O)Cc1cccc(NC(=O)c2ccccc2-c2ccc(C(F)(F)F)cc2)c1)(C(=O)NCCC)c1ccccc1` [Example 5-5]: the IC50 with HepG2 cells stood at 5 nM; in experiment [1], 4.5 nM.

As to `CCOC(=O)C(CCOC(=O)Cc1ccc(C)c(NC(=O)c2ccccc2-c2ccc(C(F)(F)F)cc2)c1)(C(=O)OCC)c1ccccc1` [Example 5-6], the IC50 is 260 nM in the experiment with HepG2 cells and 3.9 nM in experiment [1].

In the case of `CC(C)NC(=O)C(CCOC(=O)Cc1cccc(NC(=O)c2ccccc2-c2ccc(C(F)(F)F)cc2)c1)(C(=O)NC(C)C)c1ccccc1` [Example 5-8], the IC50 turned out to be 340 nM with HepG2 cells and 14 nM in experiment [1].

With `CCNC(=O)C(CCCOC(=O)Cc1cccc(NC(=O)c2ccccc2-c2ccc(C(F)(F)F)cc2)c1C)(C(=O)NCC)c1ccccc1` [Example 5-10], the IC50 was 300 nM in the experiment on HepG2 cells and 6.2 nM in experiment [1].

As for `O=C(OCCC1(C(=O)NCC(F)(F)F)c2ccccc2-c2ccccc21)c1ccc(NC(=O)c2ccccc2-c2ccc(C(F)(F)F)cc2)cc1` [Example 6, 4-[(4′-Trifluoromethylbiphenyl-2-carbonyl)amino]benzoic acid 2-[9-(2,2,2-trifluoroethylcarbamoyl)-9H-fluoren-9-yl]ethyl ester], the IC50 came to 58.3 nM in the experiment with HepG2 cells and 3.47 nM in experiment [1].

As for `O=C(Nc1ccccc1-c1ccccc1)c1ccc(C(=O)OCCC2(C(=O)NCC(F)(F)F)c3ccccc3-c3ccccc32)cc1` [Example 6-3], the figures for the IC50 (in the experiment with HepG2 cells; in experiment [1]) were 510 nM and 5.2 nM, respectively.

As for `O=C(OCCC(C(=O)NCC(F)(F)F)(c1ccccc1)c1ccccc1)c1ccc(NC(=O)c2ccccc2-c2ccc(C(F)(F)F)cc2)cc1` [Example 6-8], the IC50 in the experiment with HepG2 cells came to 630 nM; in experiment [1], 50 nM.

Turning to `O=C(OCCC(C(=O)NCC(F)(F)F)c1ccccc1)c1ccc(NC(=O)c2ccccc2-c2ccc(C(F)(F)F)cc2)cc1` (stereo not shown) [Example 6-10], the IC50 stood at 870 nM in the experiment with HepG2 cells and 22 nM in experiment [1].

For `CCOC(=O)C(CCOC(=O)c1ccc(NC(=O)c2ccccc2-c2ccc(C(F)(F)F)cc2)cc1)(C(=O)OCC)c1ccccc1` [Example 6-14], the IC50 in the experiment on HepG2 cells is 87 nM; in experiment [1] it was 6.3 nM.

With `CCOC(=O)C(CCOC(=O)c1ccc(NC(=O)c2ccccc2-c2ccc(C(F)(F)F)cc2)c(C)c1)(C(=O)OCC)c1ccccc1` [Example 6-15], the IC50 came to 57 nM in the experiment with HepG2 cells and 2 nM in experiment [1].

Consider `CCOC(=O)C(CCOC(=O)c1ccc(NC(=O)c2ccccc2-c2ccc(C(F)(F)F)cc2)cc1Cl)(C(=O)OCC)c1ccccc1` [Example 6-16], for which the IC50 in the experiment with HepG2 cells worked out at 170 nM; in experiment [1], 2.9 nM.

As to `CCOC(=O)C(CCOC(=O)c1ccc(OC(=O)c2ccccc2-c2ccc(C(F)(F)F)cc2)cc1)(C(=O)OCC)c1ccccc1` [Example 6-17], the IC50 in the experiment with HepG2 cells was 420 nM; in experiment [1], 2.3 nM.

In the case of `CCNC(=O)C(CCOC(=O)c1ccc(NC(=O)c2ccccc2-c2ccc(C(F)(F)F)cc2)cc1)(C(=O)NCC)c1ccccc1` [Example 6-19], the IC50 was 35 nM in the experiment on HepG2 cells and 3.2 nM in experiment [1].

Take `CCNC(=O)C(CCOC(=O)c1ccc(OC(=O)c2ccccc2-c2ccc(C(F)(F)F)cc2)cc1)(C(=O)NCC)c1ccccc1` [Example 6-21]: the IC50 in the experiment on HepG2 cells is 920 nM; in experiment [1], 9.8 nM.

Take `O=C(N[C@H]1CC[C@H](C(=O)OCCC2(C(=O)NCC(F)(F)F)c3ccccc3-c3ccccc32)CC1)c1ccccc1-c1ccc(C(F)(F)F)cc1` [Example 7, Trans-4-[(4′-trifluoromethylbiphenyl-2-carbonyl)amino]cyclohexanecarboxylic acid 2-[9-(2,2,2-trifluoroethylcarbamoyl)-9H-fluoren-9-yl]ethyl ester]: the IC50 came out at 60 nM in the experiment on HepG2 cells and 4.97 nM in experiment [1].

For the molecule `O=C(N[C@H]1CC[C@@H](C(=O)OCCC2(C(=O)NCC(F)(F)F)c3ccccc3-c3ccccc32)CC1)c1ccccc1-c1ccc(C(F)(F)F)cc1` [Example 7-2], the IC50 in the experiment with HepG2 cells was 26 nM; in experiment [1], 2.46 nM.

With `CCOC(=O)C(CCOC(=O)C1CCC(NC(=O)c2ccccc2-c2ccc(C(F)(F)F)cc2)CC1)(C(=O)OCC)c1ccccc1` (stereo not shown) [Example 7-5], the IC50 in the experiment with HepG2 cells is 237 nM; in experiment [1] it was 16.2 nM.

The term IC50 denotes the midpoint of a concentration-inhibition curve.
